# Values quoted from earlier work as cited in US20190274986A1, “STERILE INJECTABLE COMPOSITION COMPRISING MELPHALAN” (CADILA HEALTHCARE LIMITED, priority 2018, published 2019).
# Like-named read-outs stand apart in the source and are kept apart here.
# What was measured:
# [1] = not given; remark: listed apart in the source
Molecule,Solubility (in 1 N HCl),Solubility (in methanol),Solubility (in water),"Dose with evidence of renal cellular toxicity ([1]; animal studies, repeated administration over 1-6 months)","Renal function on repeated administration ([1]; animal studies, repeated administration, even at much higher doses)","Renal effect in single-dose studies ([1]; animal trials, single-dose up to 2000 mg/kg i.v.)"
"Cl.N[C@@H](Cc1ccc(N(CCCl)CCCl)cc1)C(=O)O [Melphalan, 4-[bis(2-chloroethyl)amino]-L-phenylalanine hydrochloride]",freely soluble,freely soluble,practically insoluble,–,–,–
sulfobutylether beta-cyclodextrin,–,–,–,≥ 160 mg/kg/day,renal function was not impaired,renal tolerance
